Laboratory results taken from US9301923B2, “Lipids, lipid compositions, and methods of using them” (NOVARTIS AG, priority 2009, dated 2016).

Key:
[1] = Particle size and PDI by dynamic light scattering (Malvern Zetasizer); type: physicochemical; parameters: Final size: unit not given here; conditions: for Final size: LNP formulation, Table 10
How it was run: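 Nanoparticles diluted in PBS to a count rate of about 200-400 kcts and measured by dynamic light scattering; size given as intensity-weighted average diameter, with polydispersity index from the same measurement.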

[2] = pKa of the lipid by TNS fluorescence; type: physicochemical; conditions: pKa
How it was run: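 Lipid dissolved in ethanol (2 mM stock) and measured with TNS across eight buffers of differing pH, in water at standard temperature and pressure. Normalized fluorescence intensity plotted against pH and points joined by a smooth line to derive pKa, precise to about 0.2 units.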

[3] = test system: PLK-1 mRNA in HepG2 tumors; experiment: HepG2 tumor study, PLK-1 mRNA KD in tumor tissue; type: in vivo, human; conditions: Mus musculus, HepG2, iv, 24 h, HepG2 tumor in nude mice, 3 × 3 mg/kg siRNA iv, tumors harvested 24 hrs after the last dose; read-out: PLK1 % inhibition
Source text: (§1) Formulated siRNAs are made up of double stranded siRNA sequences specific to a target mRNA sequence, and are in the form of lipid nucleotid particles (LNPs) containing cationic lipids, stealth lipids and neutral lipids, as provided in the Examples below. The siRNA construct for use in targeting the liver is specific to Factor VII. The siRNA construct for use in targeting tumors is specific to PLK1-424, which is published by Judge et al., See, J Clin Invest. 2009 March; 119(3):661-73; doi: 10.1172/JCI37515). • 1. FVII siRNA duplex sequence
HepG2 tumors are established in female nude mice by sc injection of 5×10^6 cells in 100 ul PBS into the left flank. Mice are randomized into treatment groups 10-14 days after seeding as tumors reached an average size of 150 mm^3. siRNA formulated LNP formulations are administered at 3×3 mg/kg dose levels intravenously via the lateral tail vein calculated on a mg siRNAs/kg basis according to individual animal weights (10 ml/kg injection volume). Mice are euthanized by CO2 inhalation at various time points and the tumors are harvested 24 hrs after the last dose for mRNA quantitation. Lipids with a wide range of pKa (5.3-6.6) are used in the LNP formulations. Tumors are measured in 2 dimensions (width×length) to assess tumor growth using digital calipers. Tumor volume is calculated using the equation [a×b×b/2], where a=largest diameter and b=smallest diameter.
(§2) About 30-50 mg tumor tissue is homogenized in tissue lysis buffer in a Qiagen homogenizer followed by centrifugation to clarify lysates. Total RNA is isolated using RNeasy isolation kit (catalog number 74106) according to the manufacture's protocol. PLK-1 mRNA is analyzed by quantitative PCR and normalized to human GAPDH. Applied Biosystems human PLK-1 gene expression assay Hs00983229_m1 and human GAPDH endogenous control cat number 4326317E are used for mRNA detection.
(§3) The pKa in all tables refers to the pKa of the cationic lipid. Where multiple doses are indicated (e.g., 3×5), the first number indicates the number of doses given and the second number indicates the amount per dose in mg siRNA (biologically active agent) per kg mouse. In general the multiple doses are administered at 24 hour intervals, and tissues for mRNA quantitation are harvested 24 hours after the last dose.

[4] = test system: PLK-1 mRNA in Hep3B tumors; experiment: Hep3B tumor study, PLK-1 mRNA KD in tumor tissue; type: in vivo, human; conditions: for PLK1 inhibition %: Hep3B tumor, mouse, i.v., LNP composition as in the source; for % KD: Table 9 experiment
Source text: as §1
Hep3B tumors are established in female nude mice by sc injection of 7×10^6 cells in 100 ul PBS into the left flank. Mice are randomized into treatment groups 10-14 days after seeding as tumors reached an average size of 100 mm^3. siRNA formulated LNP formulations are administered at various dose levels intravenously via the lateral tail vein calculated on a mg siRNAs/kg basis according to individual animal weights (10 ml/kg injection volume). Mice are euthanized by CO2 inhalation at various time points and the tumors are harvested for mRNA quantitation. Lipids with a wide range of pKa (5.3-6.6) are used in the LNP formulations. Tumors are measured in 2 dimensions (width×length) to assess tumor growth using digital calipers. Tumor volume is calculated using the equation [a×b×b/2], where a equals the largest diameter and b equals the smallest diameter.
as §2, §3

Factor VII = Factor VII activity assay, in vivo liver delivery of FVII siRNA LNP; parameters: species or system mouse; conditions: ~48 h
How it was run: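 Female CD-1 mice (~25 g) given a single i.v. tail-vein dose of FVII siRNA in LNPs (cationic, stealth, neutral lipids), dosed as mg siRNA/kg. Plasma collected ~48 h post-injection; FVII activity read against a standard curve from pooled vehicle-control plasma.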

[5] = lipid/no neutral lipid/CHOL/GM-020 NOF 60/0/36/4, N/P 3
[6] = dose 1 mg/kg siRNA i.v., lipid/no neutral lipid/CHOL/GM-020 NOF 60/0/36/4, N/P 3
[7] = LNP formulation with PLK1 siRNA, helper, neutral and stealth lipid, molar ratio and N/P as in the table
[8] = lipid/DSPC/CHOL/AVANTI 880150P 50/28/18/4, N/P 3.43
[9] = lipid/no neutral lipid/CHOL/AVANTI 880150P 50/0/46/4, N/P 3.43

SMILES	Final size [1]	pKa [2]	inhibition at 3 mg/kg [3] [%]	Final size (nm) [1, 7] [nm]	PLK1 inhibition % ([4]; 1 × 1 mg siRNA/kg) [%]	also measured
CCCCCCCC/C=C\CCCCCCCCOCC(CN1CCCCC1)OCCCOC(=O)CCC(=O)O[C@H]1CC[C@@]2(C)C(=CC[C@H]3[C@@H]4CC[C@H]([C@H](C)CCCC(C)C)[C@@]4(C)CC[C@@H]32)C1 (stereo partly shown) [E0178]	94.67	5.92	0			Final size (nm) ([1]; LNP formulation with PLK1 siRNA, helper, neutral and stealth lipid, molar ratio and N/P as in the table, stealth lipid S004, molar ratio 50/43/5/2, N/P 4): 94.67 nm; Final size (nm) ([1]; LNP formulation with PLK1 siRNA, helper, neutral and stealth lipid, molar ratio and N/P as in the table, stealth lipid S004, molar ratio 50/48/2, N/P 4): 88.39 nm; PLK1 inhibition % ([4]; 1 × 0.1 mg siRNA/kg): 0%; % KD ([4]; 0.1 mg/kg): 0%; % KD ([4]; 1.0 mg/kg): 35%
CCCCC/C=C\C/C=C\CCCCCCCCCCOCC(CN1CCCCC1)OCCCOCCCO[C@H]1CC[C@@]2(C)C(=CC[C@H]3[C@@H]4CC[C@H]([C@H](C)CCCC(C)C)[C@@]4(C)CC[C@@H]32)C1 (stereo partly shown) [E0096]	94.91	5.77	17			Final size (nm) [1, 5]: 128.8 nm; PDI [1, 5]: 0.162; FVII inhib % (Factor VII; [6]): 14.4%
CCCCC/C=C\C/C=C\CCCCCCCCOCC(CN1CCOCC1)OCCOCCNC(=O)O[C@H]1CC[C@@]2(C)C(=CC[C@H]3[C@@H]4CC[C@H]([C@H](C)CCCC(C)C)[C@@]4(C)CC[C@@H]32)C1 (stereo partly shown) [E0176]	99.14	5.56	37	99.14	36	
CCCCC/C=C\C/C=C\CCCCCCCCOC[C@@H](CN1CCC[C@@H]1C)OCCCOC(=O)CCC(=O)O[C@H]1CC[C@@]2(C)C(=CCC3C2CC[C@@]2(C)C3CC[C@@H]2[C@H](C)CCCC(C)C)C1 (stereo partly shown) [E0161]	101.4	6.3	0	101.4	45	
CCCCCCCC/C=C\CCCCCCCCOCC(CN1CCCC(C)C1)OCCOCCO[C@H]1CC[C@@]2(C)C(=CC[C@H]3[C@@H]4CC[C@H]([C@H](C)CCCC(C)C)[C@@]4(C)CC[C@@H]32)C1 (stereo partly shown) [E0119]	99.37	5.82	22	99.37	40	
CCCCC/C=C\C/C=C\CCCCCCCCOC[C@@H](CN1CCC[C@H]1C)OCCCOC(=O)CCC(=O)O[C@H]1CC[C@@]2(C)C(=CCC3C2CC[C@@]2(C)C3CC[C@@H]2[C@H](C)CCCC(C)C)C1 (stereo partly shown) [E0162]	114.4	6.07	0			
CCCCCCCC/C=C\CCCCCCCCOCC(CN1CCOCC1)OCCOCCNC(=O)O[C@H]1CC[C@@]2(C)C(=CC[C@H]3[C@@H]4CC[C@H]([C@H](C)CCCC(C)C)[C@@]4(C)CC[C@@H]32)C1 (stereo partly shown) [E0175]		5.67	49			Final size ([1]; molar ratio 50/43/5/2, N/P 3.8): 93.51; Final size ([1]; molar ratio 60/38/2, N/P 4): 78.74
CCCCCCCC/C=C\CCCCCCCCOCC(CCN1CCOCC1)OCCOCCO[C@H]1CC[C@@]2(C)C(=CCC3C2CC[C@@]2(C)C3CC[C@@H]2[C@H](C)CCCC(C)C)C1 (stereo partly shown) [E0180]	77.35		0	77.35	16	
CCCCC/C=C\C/C=C\CCCCCCCCOCC(Cn1ccnc1)OCCOCCO[C@H]1CC[C@@]2(C)C(=CCC3C2CC[C@@]2(C)C3CC[C@@H]2[C@H](C)CCCC(C)C)C1 (stereo partly shown) [E0051]		5.73		85.77		Final size (nm) [1, 8]: 157.7 nm; PDI [1, 8]: 0.131; Final size (nm) [1, 9]: 142.9 nm; PDI [1, 9]: 0.057; FVII inhib % (Factor VII; dose 3 mg/kg siRNA i.v., lipid/DSPC/CHOL/AVANTI 880150P 50/28/18/4, N/P 3.43): 17%; FVII inhib % (Factor VII; dose 3 mg/kg siRNA i.v., lipid/no neutral lipid/CHOL/AVANTI 880150P 50/0/46/4, N/P 3.43): 77.5%; PLK1 inhibition % ([4]; 1 × 10 mg siRNA/kg): 17%
CCCCC/C=C\C/C=C\CCCCCCCCCCOCC(CN1CCCC1C)OCCCOCCCO[C@H]1CC[C@@]2(C)C(=CC[C@H]3[C@@H]4CC[C@H]([C@H](C)CCCC(C)C)[C@@]4(C)CC[C@@H]32)C1 (stereo partly shown) [E0095]		5.84		96.09		Final size (nm) [1, 5]: 125.1 nm; PDI [1, 5]: 0.091; FVII inhib % (Factor VII; [6]): 13%; PLK1 inhibition % ([4]; 1 × 0.1 mg siRNA/kg): 23%
